In US6680322B2, “Compounds specific to adenosine A1 receptors and uses thereof” (OSI Pharmaceuticals, Inc., priority 1999, dated 2004):

Experiments:
[1] = target: T1, human A1 receptor subtype (Homo sapiens, UniProt P30542)
T1 sequence (P30542 1-326): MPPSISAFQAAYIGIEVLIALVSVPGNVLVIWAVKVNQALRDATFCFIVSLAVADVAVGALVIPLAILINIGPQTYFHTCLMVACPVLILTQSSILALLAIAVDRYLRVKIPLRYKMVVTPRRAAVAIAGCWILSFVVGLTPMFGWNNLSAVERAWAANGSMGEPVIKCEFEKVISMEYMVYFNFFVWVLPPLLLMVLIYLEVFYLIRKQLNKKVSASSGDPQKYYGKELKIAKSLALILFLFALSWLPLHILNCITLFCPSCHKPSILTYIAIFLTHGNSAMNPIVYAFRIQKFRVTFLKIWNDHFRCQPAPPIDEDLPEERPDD

[2] = target: T2, human A2a receptor subtype (Homo sapiens, UniProt P29274); assay: Adenosine 2a receptor subtype competition radioligand binding ([3H]CGS-21680, HEK293 membranes); conditions: Table 13; % activity @ 10 μM (footnote 8)
T2 construct: expressed in transfected cells; host or cells: HEK-293 (Cadus clone #5)

[3] = target: T3, human A3 receptor subtype (Homo sapiens, UniProt P0DMS8); assay: Adenosine 3 receptor competition radioligand binding ([125I]AB-MECA, HEK293 membranes); conditions: Table 13; % activity @ 10 μM (footnote 8)
T3 construct: expressed in transfected cells; host or cells: HEK293
T3 sequence (P0DMS8 1-318): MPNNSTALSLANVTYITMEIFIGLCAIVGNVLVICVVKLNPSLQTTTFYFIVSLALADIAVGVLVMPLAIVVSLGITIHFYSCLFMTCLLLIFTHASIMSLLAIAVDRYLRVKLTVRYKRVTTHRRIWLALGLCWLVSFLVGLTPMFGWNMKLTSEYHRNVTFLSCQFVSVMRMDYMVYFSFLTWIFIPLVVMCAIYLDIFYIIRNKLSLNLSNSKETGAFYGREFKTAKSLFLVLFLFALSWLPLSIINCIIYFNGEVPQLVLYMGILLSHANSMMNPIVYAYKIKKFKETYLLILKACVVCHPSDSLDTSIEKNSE

[4] = target: T4, human A1 adenosine receptor (Homo sapiens, UniProt P30542); conditions: cited from earlier work
T4 sequence (P30542 1-326): T1 sequence (P30542 1-326)

T2 sequence (P29274 whole entry): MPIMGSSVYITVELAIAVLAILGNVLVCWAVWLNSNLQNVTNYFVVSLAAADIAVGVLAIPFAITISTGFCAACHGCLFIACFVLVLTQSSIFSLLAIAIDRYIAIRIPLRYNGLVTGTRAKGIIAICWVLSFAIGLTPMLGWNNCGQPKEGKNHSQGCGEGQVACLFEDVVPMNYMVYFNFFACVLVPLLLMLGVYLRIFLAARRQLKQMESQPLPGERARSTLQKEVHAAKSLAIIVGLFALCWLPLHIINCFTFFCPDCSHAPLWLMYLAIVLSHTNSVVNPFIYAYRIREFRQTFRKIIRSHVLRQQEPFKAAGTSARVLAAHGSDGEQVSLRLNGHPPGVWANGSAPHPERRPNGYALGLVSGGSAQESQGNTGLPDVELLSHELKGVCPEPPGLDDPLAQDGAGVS

**Q.** Which melting point does the source give for `NC(=O)[C@@H]1C[C@H](O)CN1c1nc(-c2ccccc2)nc2[nH]ccc12` [Compound 1606, 4-Hydroxy-1-(2-phenyl-7H-pyrrolo[2,3-d]pyrimidin-4-yl]-pyrrolidine-2-carboxylic Acid Amide] here?
**A.** 268 to 271 °C

**Q.** For `NC(=O)C1CCCN1c1nc(-c2ccccc2)nc2[nH]c(C(=O)O)cc12` (stereo not shown) [Compound 1619, [4-(2-Carbamoylpyrrolidin-1-yl)-2-phenyl-7H-pyrrolo[2,3-d]pyrimidine-6-carboxylic Acid]], which melting point is on record?
**A.** 220 °C (dec.)

**Q.** With `Cc1[nH]c2nc(-c3ccccc3)nc(NCCNC(=O)C3(N)CC3)c2c1C` [Compound 1313] as the compound, how does the “A1 binding, % activity” value ([1]; Table 13, % activity @ 10 μM (footnote 8)) read?
**A.** 30%

**Q.** What about the “A2a binding, % activity” value [2] of the same compound?
**A.** 65%

**Q.** With `O[C@H]1CC[C@H](Nc2nc(-c3ccncc3)nc3[nH]ccc23)CC1` [Compound 1321] as the compound, how does the “A3 binding, % activity” value [3] read?
**A.** 54%^8

**Q.** With `COC(=O)c1cc2c(NC3CCC(O)CC3)nc(-c3ccccc3)nc2[nH]1` (stereo not shown) [Compound 1627, 4-(4-Hydroxy-cyclohexylamino)-2-phenyl-7H-pyrrolo[2,3-d]pyrimidine-6-carboxylic Acid Methyl Ester] as the compound, how does the melting point read?
**A.** 225 to 227 °C

**Q.** Which melting point does the source give for `CC(=O)NCCNc1nc(-c2ccccc2)nc2[nH]c(COc3ccccc3)cc12` [Example 17] here?
**A.** 196 to 197 °C

**Q.** With `COCc1cc2c(N3CCCC3C(N)=O)nc(-c3ccccc3)nc2[nH]1` (stereo not shown) [Compound 1605] as the compound, how does the melting point read?
**A.** 213 to 215 °C

**Q.** With `O[C@H]1CC[C@H](Nc2nc(-c3ccccc3)nc3[nH]c(CN4CCOCC4)cc23)CC1` [Compound 1503] as the compound, how does the “Ki-A1 (selectivity versus A2a, A2b, A3)” value ([1]; Table 15) read?
**A.** * (at least 10 times more selective than other three subtypes)

**Q.** With `NC(=O)c1cc2c(NC3CCC(O)CC3)nc(-c3ccccc3)nc2[nH]1` (stereo not shown) [Compound 1630, 4-(4-Hydroxy-cyclohexylamino)-2-phenyl-7H-pyrrolo[2,3-d]pyrimidine-6-carboxylic Acid Amide] as the compound, how does the melting point read?
**A.** 210 to 220 °C (dec.)

**Q.** With `NC(=O)[C@@H]1CCCN1c1nc(-c2ccccc2)nc2[nH]ccc12` [Compound 1602] as the compound, how does the melting point read?
**A.** 236 to 238 °C

**Q.** Which “A2a binding, % activity” value [2] does the source give for `CNC(=O)NCCCNc1nc(-c2ccccc2)nc2[nH]c(C)c(C)c12` [Compound 1310] here?
**A.** 76%

**Q.** Which reported affinity [4] does the source give for `CC(Cc1ccccc1)Nc1ncnc2c1ncn2[C@@H]1O[C@H](CO)[C@@H](O)[C@H]1O` (single isomer, unassigned; (-)) [PIA, (−)-N6-(2-phenylisopropyl)-adenosine] here?
**A.** approximately 50 nM
